# Data reported in ChEMBL document CHEMBL1123357, “Chemotherapeutic approaches to the treatment of the acquired immune deficiency syndrome (AIDS)” (1986).
# Assays:
# ATH-8 cell line [1] = experiment: Minimum inhibitory concentration of the compound, achieving a complete protection of ATH8 cells against the cytopathic effect of HTLV-III / LAV […]; assay type: functional; conditions: Homo sapiens
# ATH-8 cell line [2] = experiment: Selectivity index expressed as ratio of compound concentration required to reduce the growth of normal uninfected ATH8 cells by 50% to the compound concentration (MIC); assay type: functional, Homo sapiens
Structure (SMILES),MIC (ATH-8 cell line [1]) [µM],SI (ATH-8 cell line [2])
O=C(O)C1=CC(=C(c2ccc(O)c(C(=O)O)c2)c2ccc(O)c(C(=O)O)c2)C=CC1=O [AURINTRICARBOXYLIC ACID],47,>2.5
Cc1cc(-c2ccc(/N=N/c3ccc4c(S(=O)(=O)[O-])cc(S(=O)(=O)[O-])c(N)c4c3O)c(C)c2)ccc1/N=N/c1ccc2c(S(=O)(=O)[O-])cc(S(=O)(=O)[O-])c(N)c2c1O.[Na+].[Na+].[Na+].[Na+] [EVANS BLUE],26,>4
O=C(O)P(=O)(O)O [FOSCARNET],350,>1
NC(=O)c1ncn([C@@H]2O[C@H](CO)[C@@H](O)[C@H]2O)n1 [RIBAVIRIN],> 400,<0.3
Cc1ccc(C(=O)Nc2ccc(S(=O)(=O)O)c3cc(S(=O)(=O)O)cc(S(=O)(=O)O)c23)cc1NC(=O)c1cccc(NC(=O)Nc2cccc(C(=O)Nc3cc(C(=O)Nc4ccc(S(=O)(=O)O)c5cc(S(=O)(=O)O)cc(S(=O)(=O)O)c45)ccc3C)c2)c1 [SURAMIN],35,5
Nc1ccn([C@H]2CC[C@@H](CO)O2)c(=O)n1 [ZALCITABINE],0.5,50
Cc1cn([C@H]2C[C@H](N=[N+]=[N-])[C@@H](CO)O2)c(=O)[nH]c1=O [ZIDOVUDINE],1,>50
